# Reference: patent publication US9493448B2, “Cycloalkane derivatives” (Daiichi Sankyo Company, Limited, priority 2012, dated 2016)
# pIC50: −log10 of the molar value.
# Experiments:
# hNav 1.7 = hNav 1.7 (Homo sapiens (Human), UniProt Q15858); experiment: Electrophysiological evaluation, automated patch clamp IonWorks Quattro (Population Patch Clamp mode); format: cell-based; conditions: HEK293A cells stably expressing hNav 1.7/β1/β2; response to second depolarization pulse, pre-pulse potential set to V1/2; read-out: hNav1.7 IC50
# [1] = tested on: mice and rats affected by thermal hyperalgesia; experiment: Thermal hyperalgesia assay; format: in vivo; conditions: oral administration, constant dose, against the vehicle treatment group; latency to escape behaviors after thermal stimulation of hind paw;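 also: measurement times set by the study director and not disclosed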
# hNav 1.7, sequence (Q15858 whole entry): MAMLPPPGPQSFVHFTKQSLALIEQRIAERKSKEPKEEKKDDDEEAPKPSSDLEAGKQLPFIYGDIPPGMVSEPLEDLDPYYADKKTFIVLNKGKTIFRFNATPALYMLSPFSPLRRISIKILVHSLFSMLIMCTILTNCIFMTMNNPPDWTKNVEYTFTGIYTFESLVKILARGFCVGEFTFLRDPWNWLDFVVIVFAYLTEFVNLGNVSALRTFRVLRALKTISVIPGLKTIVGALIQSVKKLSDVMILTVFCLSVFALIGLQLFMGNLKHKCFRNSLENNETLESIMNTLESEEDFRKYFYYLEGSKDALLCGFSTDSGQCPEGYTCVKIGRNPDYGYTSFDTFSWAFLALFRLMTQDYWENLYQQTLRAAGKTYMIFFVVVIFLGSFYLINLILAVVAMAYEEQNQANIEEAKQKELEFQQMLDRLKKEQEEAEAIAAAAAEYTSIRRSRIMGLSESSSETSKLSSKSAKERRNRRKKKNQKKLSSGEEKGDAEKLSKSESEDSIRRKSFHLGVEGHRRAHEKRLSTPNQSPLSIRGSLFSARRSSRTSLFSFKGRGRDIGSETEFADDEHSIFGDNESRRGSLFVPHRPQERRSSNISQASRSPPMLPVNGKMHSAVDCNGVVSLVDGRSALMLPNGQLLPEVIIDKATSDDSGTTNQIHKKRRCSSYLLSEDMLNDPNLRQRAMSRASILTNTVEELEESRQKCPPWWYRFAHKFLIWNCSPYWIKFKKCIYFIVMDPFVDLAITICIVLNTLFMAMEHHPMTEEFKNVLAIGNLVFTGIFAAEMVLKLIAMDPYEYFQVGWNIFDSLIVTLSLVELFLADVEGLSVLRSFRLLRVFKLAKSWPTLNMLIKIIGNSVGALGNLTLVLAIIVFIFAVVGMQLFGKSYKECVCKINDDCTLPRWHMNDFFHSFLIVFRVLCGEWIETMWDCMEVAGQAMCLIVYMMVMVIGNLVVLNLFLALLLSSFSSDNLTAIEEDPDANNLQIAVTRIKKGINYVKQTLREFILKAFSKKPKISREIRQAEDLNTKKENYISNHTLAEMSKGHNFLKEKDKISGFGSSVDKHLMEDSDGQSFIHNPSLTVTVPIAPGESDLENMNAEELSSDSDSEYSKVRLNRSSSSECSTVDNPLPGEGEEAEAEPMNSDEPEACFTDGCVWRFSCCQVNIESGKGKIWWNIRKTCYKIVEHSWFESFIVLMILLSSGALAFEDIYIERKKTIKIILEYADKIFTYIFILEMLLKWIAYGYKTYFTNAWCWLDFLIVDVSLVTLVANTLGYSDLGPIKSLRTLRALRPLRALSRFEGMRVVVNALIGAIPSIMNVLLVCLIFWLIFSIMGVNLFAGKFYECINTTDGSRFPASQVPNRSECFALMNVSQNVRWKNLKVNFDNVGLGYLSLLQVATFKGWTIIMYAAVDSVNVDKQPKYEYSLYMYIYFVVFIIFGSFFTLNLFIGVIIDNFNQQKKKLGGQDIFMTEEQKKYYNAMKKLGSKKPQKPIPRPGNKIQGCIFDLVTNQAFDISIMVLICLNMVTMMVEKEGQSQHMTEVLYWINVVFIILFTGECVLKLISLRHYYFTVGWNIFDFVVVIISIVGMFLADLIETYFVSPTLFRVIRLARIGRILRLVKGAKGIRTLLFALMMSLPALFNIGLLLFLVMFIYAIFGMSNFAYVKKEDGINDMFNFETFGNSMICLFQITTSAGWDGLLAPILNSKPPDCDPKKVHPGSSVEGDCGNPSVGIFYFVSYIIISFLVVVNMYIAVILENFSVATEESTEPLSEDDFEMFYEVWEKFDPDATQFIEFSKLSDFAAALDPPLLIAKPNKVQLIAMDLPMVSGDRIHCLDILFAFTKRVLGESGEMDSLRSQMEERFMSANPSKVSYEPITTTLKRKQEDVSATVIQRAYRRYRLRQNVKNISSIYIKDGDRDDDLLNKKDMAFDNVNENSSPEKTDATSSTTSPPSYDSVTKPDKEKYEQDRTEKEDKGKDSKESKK
# hNav 1.7, sequence (Q07699 19-218 partner): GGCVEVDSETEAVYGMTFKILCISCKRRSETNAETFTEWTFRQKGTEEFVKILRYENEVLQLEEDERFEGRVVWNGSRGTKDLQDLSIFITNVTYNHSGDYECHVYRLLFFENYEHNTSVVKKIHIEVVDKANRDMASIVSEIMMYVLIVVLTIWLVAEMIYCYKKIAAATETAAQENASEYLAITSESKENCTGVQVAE
# hNav 1.7, sequence (O60939 30-215 partner): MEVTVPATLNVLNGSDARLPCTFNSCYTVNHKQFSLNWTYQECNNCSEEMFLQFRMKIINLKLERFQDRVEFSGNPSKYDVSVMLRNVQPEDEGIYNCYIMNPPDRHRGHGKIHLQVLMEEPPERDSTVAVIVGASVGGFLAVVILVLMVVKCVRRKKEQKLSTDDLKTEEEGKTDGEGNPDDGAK
pIC50 (hNav 1.7),SMILES,Ratio of improving pain score (%) [1]
6.89,"Cn1nccc1[C@H]1CCC[C@@H]1Oc1ccc(S(=O)(=O)Nc2ccncn2)cc1Cl (relative stereo) [Example 23, 3-Chloro-4-({[(1S*,2R*)-2-(1-methyl-1H-pyrazol-5-yl)cyclopentyl]oxy}-N-(pyrimidin-4-yl)benzenesulfonamide]",A (“A” when the rate was 61 to 100%)
7.34,"CCn1nccc1[C@H]1CCCC[C@@H]1Oc1cc(F)c(S(=O)(=O)Nc2ccncn2)cc1F (relative stereo) [Example 28, 4-{[(1S*,2R*)-2-(1-Ethyl-1H-pyrazol-5-yl)cyclohexyl]oxy}-2,5-difluoro-N-(pyrimidin-4-yl)benzenesulfonamide]",C (“C” when the rate was 0 to 30%)
5.74,"Cn1nccc1[C@H]1CCC[C@@H]1Oc1ccc(S(=O)(=O)Nc2ccncn2)c(F)c1 (relative stereo) [Example 29, 2-Fluoro-4-{[(1S*,2R*)-2-(1-methyl-1H-pyrazol-5-yl)cyclopentyl]oxy}-N-(pyrimidin-4-yl)benzenesulfonamide]",A (“A” when the rate was 61 to 100%)
6.52,"O=S(=O)(Nc1ccncn1)c1cc(F)c(O[C@H]2CCCC[C@@H]2c2cn[nH]c2)cc1F (relative stereo) [Example 33, 2,5-Difluoro-4-{[(1S*,2R*)-2-(1H-pyrazol-4-yl)cyclohexyl]oxy}-N-(pyrimidin-4-yl)benzenesulfonamide]",A (“A” when the rate was 61 to 100%)
7.00,"Nc1cc([C@H]2CCCC[C@@H]2Oc2cc(F)c(S(=O)(=O)Nc3ccncn3)cc2F)ccn1 (relative stereo) [Example 35, 4-{[(1S*,2R*)-2-(2-Aminopyridin-4-yl)cyclohexyl]oxy}-2,5-difluoro-N-(pyrimidin-4-yl)benzenesulfonamide]",B (“B” when the rate was 31 to 60%)
6.68,"CCn1nccc1[C@H]1CCC[C@@H]1Oc1cc(F)c(S(=O)(=O)Nc2ccncn2)cc1F (relative stereo) [Example 37, 4-{[(1S*,2R*)-2-(1-Ethyl-1H-pyrazol-5-yl)cyclopentyl]oxy}-2,5-difluoro-N-(pyrimidin-4-yl)benzenesulfonamide]",C (“C” when the rate was 0 to 30%)
6.06,"Cn1nccc1[C@H]1CC(F)(F)CC[C@@H]1Oc1ccc(S(=O)(=O)Nc2ccncn2)c(F)c1 (relative stereo) [Example 130, 4-{[(1S*,2R*)-4,4-Difluoro-2-(1-methyl-1H-pyrazol-5-yl)cyclohexyl]oxy}-2-fluoro-N-(pyrimidin-4-yl)benzenesulfonamide]",
< 4.00,"Cn1nccc1[C@H]1CCCC[C@@H]1Oc1cc(F)c(S(=O)(=O)Nc2ccnc(=O)[nH]2)cc1Cl (relative stereo) [Example 153, 5-Chloro-2-fluoro-4-{[(1S*,2R*)-2-(1-methyl-1H-pyrazol-5-yl)cyclohexyl]oxy}-N-(2-oxo-2,3-dihydropyrimidin-4-yl)benzenesulfonamide]",
7.55,"Cc1cc(S(=O)(=O)Nc2ccncn2)c(F)cc1O[C@H]1CC(F)(F)CC[C@@H]1c1ccn[nH]1 (relative stereo) [Example 155, 4-{[(1S*,2R*)-5,5-Difluoro-2-(1H-pyrazol-5-yl)cyclohexyl]oxy}-2-fluoro-5-methyl-N-(pyrimidin-4-yl)benzenesulfonamide]",
7.39,"O=S(=O)(Nc1ccncn1)c1cc(Cl)c(O[C@H]2CC(F)(F)CC[C@@H]2c2ccn[nH]2)cc1F (relative stereo) [Example 156, 5-Chloro-4-{[(1S*,2R*)-5,5-difluoro-2-(1H-pyrazol-5-yl)cyclohexyl]oxy}-2-fluoro-N-(pyrimidin-4-yl)benzenesulfonamide]",
7.30,"Cc1cc(S(=O)(=O)Nc2ccncn2)c(F)cc1O[C@H]1CCC(F)(F)C[C@@H]1c1ccn[nH]1 (relative stereo) [Example 157, 4-{[(1S*,2R*)-4,4-Difluoro-2-(1H-pyrazol-5-yl)cyclohexyl]oxy}-2-fluoro-5-methyl-N-(pyrimidin-4-yl)benzenesulfonamide]",
6.25,"Cn1nccc1[C@H]1CC[C@@H](O)C[C@@H]1Oc1cc(F)c(S(=O)(=O)Nc2ccncn2)cc1Cl (relative stereo) [Example 160, 5-Chloro-2-fluoro-4-{[(1S*,2R*,5R*)-5-hydroxy-2-(1-methyl-1H-pyrazol-5-yl)cyclohexyl]oxy}-N-(pyrimidin-4-yl)benzenesulfonamide]",
6.89,"Cn1nccc1[C@H]1C[C@H](O)CC[C@@H]1Oc1cc(F)c(S(=O)(=O)Nc2ccncn2)cc1Cl (relative stereo) [Example 161, 5-Chloro-2-fluoro-4-{[(1S*,2R*,4R*)-4-hydroxy-2-(1-methyl-1H-pyrazol-5-yl)cyclohexyl]oxy}-N-(pyrimidin-4-yl)benzenesulfonamide]",
6.09,"Cn1nccc1[C@H]1C[C@@H](O)CC[C@@H]1Oc1cc(F)c(S(=O)(=O)Nc2ccncn2)cc1Cl (relative stereo) [Example 162, 5-Chloro-2-fluoro-4-{[(1S*,2R*,4S*)-4-hydroxy-2-(1-methyl-1H-pyrazol-5-yl)cyclohexyl]oxy}-N-(pyrimidin-4-yl)benzenesulfonamide]",
6.72,"Cn1nccc1[C@H]1CC[C@H](O)C[C@@H]1Oc1cc(F)c(S(=O)(=O)Nc2ccncn2)cc1Cl (relative stereo) [Example 163, 5-Chloro-2-fluoro-4-{[(1S*,2R*,5S*)-5-hydroxy-2-(1-methyl-1H-pyrazol-5-yl)cyclohexyl]oxy}-N-(pyrimidin-4-yl)benzenesulfonamide]",
7.44,"Cn1nccc1[C@H]1CCC(F)(F)C[C@@H]1Oc1cc(F)c(S(=O)(=O)Nc2ccncn2)cc1F [Example 102, 4-{[(1S,2R)-5,5-Difluoro-2-(1-methyl-1H-pyrazol-5-yl)cyclohexyl]oxy}-2,5-difluoro-N-(pyrimidin-4-yl)benzenesulfonamide]",
5.62,"Cn1nccc1[C@H]1CCC[C@@H]1Oc1ccc(S(=O)(=O)Nc2ccncn2)c(F)c1 [Example 124, 2-Fluoro-4-{[(1S,2R)-2-(1-methyl-1H-pyrazol-5-yl)cyclopentyl]oxy}-N-(pyrimidin-4-yl)benzenesulfonamide]",
5.47,"Cc1cc(S(=O)(=O)Nc2ccncn2)c(F)cc1O[C@@H]1CC(F)(F)CC[C@H]1c1cn[nH]c1 [Example 144, 4-{[(1R,2S)-5,5-Difluoro-2-(1H-pyrazol-4-yl)cyclohexyl]oxy}-2-fluoro-5-methyl-N-(pyrimidin-4-yl)benzenesulfonamide]",
4.49,"Cc1cc(S(=O)(=O)Nc2ccncn2)c(F)cc1O[C@@H]1CCC[C@H]1c1ccn[nH]1 [Example 149, 2-Fluoro-5-methyl-4-{[(1R,2S)-2-(1H-pyrazol-5-yl)cyclopentyl]oxy}-N-(pyrimidin-4-yl)benzenesulfonamide]",
4.48,"O=S(=O)(Nc1ccncn1)c1cc(Cl)c(O[C@@H]2CCC[C@H]2c2ccn[nH]2)cc1F [Example 151, 5-Chloro-2-fluoro-4-{[(1R,2S)-2-(1H-pyrazol-5-yl)cyclopentyl]oxy}-N-(pyrimidin-4-yl)benzenesulfonamide]",
5.01,"O=S(=O)(Nc1ccncn1)c1cc(Cl)c(O[C@@H]2CCCC[C@H]2c2ccn[nH]2)cc1F [Example 159, 5-Chloro-2-fluoro-4-{[(1R,2S)-2-(1H-pyrazol-5-yl)cyclohexyl]oxy}-N-(pyrimidin-4-yl)benzenesulfonamide]",
< 5.00,"Cn1nccc1[C@@H]1C[C@@H](O)CC[C@H]1Oc1cc(F)c(S(=O)(=O)Nc2ccncn2)cc1Cl [Example 164, 5-Chloro-2-fluoro-4-{[(1R,2S,4S)-4-hydroxy-2-(1-methyl-1H-pyrazol-5-yl)cyclohexyl]oxy}-N-(pyrimidin-4-yl)benzenesulfonamide]",
7.23,"CC(=O)O[C@@H]1CC[C@H](Oc2cc(F)c(S(=O)(=O)Nc3ccncn3)cc2Cl)[C@@H](c2ccnn2C)C1 [Example 166, (1R,3R,4S)-4-[2-Chloro-5-fluoro-4-(pyrimidin-4-ylsulfamoyl)phenoxy]-3-(1-methyl-1H-pyrazol-5-yl)cyclohexyl acetate]",
< 5.00,"O=S(=O)(Nc1ccncn1)c1c(F)cc(O[C@@H]2CCCC[C@H]2c2cn[nH]c2)cc1F [Example 169, 2,6-Difluoro-4-{[(1R,2S)-2-(1H-pyrazol-4-yl)cyclohexyl]oxy}-N-(pyrimidin-4-yl)benzenesulfonamide]",
< 5.00,"Cc1cc(S(=O)(=O)Nc2ccncn2)c(F)cc1O[C@@H]1CCCC[C@H]1c1cn[nH]c1 [Example 170, 2-Fluoro-5-methyl-4-{[(1R,2S)-2-(1H-pyrazol-4-yl)cyclohexyl]oxy}-N-(pyrimidin-4-yl)benzenesulfonamide]",
7.47,"Cc1cc(S(=O)(=O)Nc2ccncn2)c(F)cc1O[C@H]1CCCC[C@@H]1c1cn[nH]c1 [Example 172, 2-Fluoro-5-methyl-4-{[(1S,2R)-2-(1H-pyrazol-4-yl)cyclohexyl]oxy}-N-(pyrimidin-4-yl)benzenesulfonamide]",

SMILES,pIC50 (hNav 1.7),Ratio of improving pain score (%) [1]
"O=S(=O)(Nc1ncns1)c1cc(F)c(O[C@H]2CCCC[C@@H]2c2ccccc2)cc1F (single isomer, unassigned) [Example 1, 2,5-Difluoro-4-{[(1S*,2R*)-2-phenylcyclohexyl]oxy}-N-(1,2,4-thiadiazol-5-yl)benzenesulfonamide]",6.92,
"O=S(=O)(Nc1ncns1)c1cc(F)c(O[C@H]2CCCC[C@@H]2c2ccccc2)cc1F [Example 2, 2,5-Difluoro-4-{[(1S,2R)-2-phenylcyclohexyl]oxy}-N-(1,2,4-thiadiazol-5-yl)benzenesulfonamide]",7.70,
"O=S(=O)(Nc1ncns1)c1cc(F)c(O[C@@H]2CCCC[C@H]2c2ccccc2)cc1F [Example 75, 2,5-Difluoro-4-{[(1R,2S)-2-phenylcyclohexyl]oxy}-N-(1,2,4-thiadiazol-5-yl)benzenesulfonamide]",< 5.00,
